Assay results reported in publication PMC12118597 (Science Advances, 2025).
Values joined by “and” are separate entries in the source; they are usually repeats but may differ in a detail not shown here. Equal entries are not always repeated. Where two headings read alike, the source gives them in different places.

What was measured:
human macrodomain Targ1 = target: T1, human macrodomain Targ1 (Homo sapiens, UniProt Q9Y530); assay: HTRF peptide displacement assay, human Targ1; assay type: binding
T1 construct: Targ1_HTRF; HTRF assay; pET22b(+); His6, TEV; 1-153; made in house
T1 sequence (Q9Y530 with tags, fused parts or gaps): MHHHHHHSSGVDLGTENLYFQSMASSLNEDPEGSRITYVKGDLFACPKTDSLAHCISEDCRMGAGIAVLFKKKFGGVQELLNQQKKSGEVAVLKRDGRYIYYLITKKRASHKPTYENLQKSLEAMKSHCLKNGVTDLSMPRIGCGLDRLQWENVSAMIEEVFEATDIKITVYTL

Caco-2 cells = test system: Caco-2 cells
Description: Caco-2 cell plates were obtained commercially and were maintained for 21 days at 37°C with 5% CO2. Cells were washed with Hank’s balanced salt solution with 5 mM Hepes for 30 min before starting the experiment. Test compound solutions are prepared by diluting DMSO stock into Hank’s balanced salt solution buffer, resulting in a final DMSO concentration of 0.1%. Before the assay, cell monolayer integrity was verified by […] electrical resistance to ensure that wells have resistance above the acceptance cutoff (1 kilohm). Transport experiments were initiated by adding test compounds to the apical (75 μl) or basal (250 μl) side. Transport plates were incubated at 37°C in a humidified incubator with 5% CO2. Samples were taken from the donor and acceptor compartments after 1 hour and analyzed by liquid chromatography–tandem mass spectrometry (LC-MS/MS) using an AB Sciex API 4000 instrument coupled to a Shimadzu LC-20 AD LC Pump system. Samples were separated using a Waters Atlantis T3 dC18 reverse phase HPLC column (20 mm by 2.1 mm) at a flow rate of 0.5 ml/min. The mobile phase consisted of 0.1% formic acid in acetonitrile (solvent A) and 0.1% formic acid in water (solvent B).
Apparent permeability (Papp) values were calculated using the following equation Papp=(dQ/dt)/A/C0 where dQ/dt is the initial rate of compound transport across the cell monolayer, A is the surface area of the filter membrane, and C0 is the initial concentration of the test compound, calculated for each direction using a four-point calibration curve by LC-MS/MS.
The net flux ratio between the two directional transports was calculated by the following equation Ratio=PappB−A/PappA−B where PappB-A and PappA-B represent the apparent permeability of compounds from the basal-to-apical and apical-to-basal sides of the cellular monolayer, respectively. Recovery was calculated on the basis of the compound concentration at the end of the experiment compared to that at the beginning of the experiment, adjusted for volumes.

Microsomal stability = assay type: in vitro ADME, mouse; settings: for Mouse microsome T1/2: 1 μM compound, 0.5 mg/ml microsome protein; for CLint (mouse): intrinsic clearance from t1/2
Description: The assay was carried out in 96-well plates at 37°C. Reaction mixtures (25 μl) contained a final concentration of 1 μM compound, liver microsome protein (0.5 mg/ml), and 1 mM NADPH (reduced form of nicotinamide adenine dinucleotide phosphate) and/or 1 mM uridine diphosphate glucuronic acid (with alamethicin) in 100 mM potassium phosphate (pH 7.4) with 3 mM MgCl2. After 0, 15, 30, and 60 min, 150 μl of quench solution (100% acetonitrile with 0.1% formic acid) with an internal standard was transferred to each well. Reactions containing the same components, except NADPH, were prepared as the negative control.
The extent of metabolism was calculated as the disappearance of compounds compared to the 0-min time incubation.

Kinetic solubility = settings: for Kinetic solubility (uM), mean: DMSO concentration 5%; for Mean solubility: phosphate-buffered saline pH 7.4, triplicate
[1] = target: T2, SARS-CoV-2 NSP3 macrodomain (Mac1) (Severe acute respiratory syndrome coronavirus 2, UniProt P0DTD1); assay: biochemical; assay type: binding
[2] = target: T3, human macrodomain MacroD2 (Homo sapiens, UniProt A1Z1Q3); assay: HTRF peptide displacement assay, human MacroD2; assay type: binding
T3 construct: MacroD2_HTRF; HTRF assay; pET22b(+); His6, TEV, Avi; 2-425; made in house
T3 sequence (A1Z1Q3 with tags, fused parts or gaps): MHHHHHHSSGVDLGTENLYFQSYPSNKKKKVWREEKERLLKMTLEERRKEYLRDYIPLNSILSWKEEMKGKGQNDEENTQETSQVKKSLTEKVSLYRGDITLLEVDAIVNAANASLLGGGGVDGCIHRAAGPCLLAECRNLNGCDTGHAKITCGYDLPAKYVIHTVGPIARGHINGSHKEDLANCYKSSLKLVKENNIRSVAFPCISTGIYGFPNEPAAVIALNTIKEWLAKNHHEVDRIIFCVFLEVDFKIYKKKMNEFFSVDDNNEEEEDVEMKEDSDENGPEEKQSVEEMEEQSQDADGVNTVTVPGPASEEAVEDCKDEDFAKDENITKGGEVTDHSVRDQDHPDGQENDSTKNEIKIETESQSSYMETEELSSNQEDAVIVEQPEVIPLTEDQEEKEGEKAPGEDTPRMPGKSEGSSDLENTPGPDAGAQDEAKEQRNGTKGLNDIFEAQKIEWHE

[3] = target: T2, SARS-CoV-2 NSP3 macrodomain (Mac1); assay type: binding; settings: for 1-BDC: PanDDA background density correction factor; for Total number of conformations: ligand conformations modeled in the crystal structure; for 2*(1-BDC) (%): occupancy estimate from PanDDA; for Refined ligand occupancy (%): refined crystallographic occupancy
Mac1 = settings: cited from earlier work
[4] = Caco-2 permeability assay, compound concentration 5
[5] = Mouse microsome stability assay
[6] = HTRF binding curve, SARS-CoV-2 Mac1
[7] = SARS CoV-2 macrodomain HTRF assay, dose-response
[8] = crystal soak 10 mM, P43 crystal form
[9] = Caco-2, compound concentration 5

## Nc1ncnc2c1ncn2[C@@H]1O[C@H](COP(=O)(O)OP(=O)(O)OC[C@H]2O[C@@H](O)[C@H](O)[C@@H]2O)[C@@H](O)[C@H]1O.[Na].[Na] [ADP-ribose, reference compound]
Human macrodomain Targ1; HTRF binding curve, Targ1
  Hill slope: 1.5

## O=C(Nc1ccc(C(=O)N[C@H]2c3cccc(O)c3C[C@H]2C(=O)O)cc1)NC1CC1 [AVI-92, reference compound]
Caco-2 cells; [4]
  Papp, A-B (x10-6 cm/s), mean: 0.04 x10-6 cm/s
  Papp, B-A (x10-6 cm/s), mean: 1.7 x10-6 cm/s
  Ratio (B-A/A-B): 42.50
  Recover Rate (%): 91%
Caco-2 cells; net flux ratio
  Caco-2 ratio B-A/A-B: 40.7
Microsomal stability
  Mouse microsome T1/2: > 120 min
  CLint (mouse): < 11.6 µl/min/mg protein
Microsomal stability; [5]
  CLint (mouse) (µl/min/mg protein), mean: <11.6 µl/min/mg protein
  T1/2 (min), mean: >120 min
Kinetic solubility
  Kinetic solubility (uM), mean: 524 µM
  Mean solubility: 524 µM

## O=C1CCCN1Nc1ncnc2[nH]c3cc(F)ccc3c12 [AVI-219, reference compound]
Caco-2 cells; [4]
  Recover Rate (%): 98%
Microsomal stability; [5]
  T1/2 (min), mean: 26.1 min
Microsomal stability
  CLint (mouse): 53.1 µl/min/mg protein
Kinetic solubility
  Kinetic solubility (uM), mean: 127 µM
  Mean solubility: 127 µM

## CC(C)(O)[C@H]1CCCN1c1ncnc2[nH]ccc12 [AVI-607, 2-[(2R)-1-{7H-pyrrolo[2,3-d]pyrimidin-4-yl}pyrrolidin-2-yl]propan-2-ol]
[1]; [6]
  Hill slope: 1.5
[1]; [7]
  Hill slope: 1.5
[1]; SARS CoV-2 macrodomain HTRF assay, single dose concentration 200 μM, read-out: Average % competition
  inhibition at 200 µM: 100%
[1]; compound at 200 μM, mean of three to four technical replicates, read-out: % competition at 200 μM (preliminary HTRF screen)
  inhibition at 200 µM: 100%
[2]; result in words
  showed binding to the human macrodomain MacroD2: none
Human macrodomain Targ1; result in words
  showed binding to the human macrodomain Targ1: none
Caco-2 cells; [4]
  Recover Rate (%): 93%
Microsomal stability; [5]
  T1/2 (min), mean: 19 min
Microsomal stability
  CLint (mouse): 73 µl/min/mg protein
[3]
  Occupancy difference (refined_occupancy - 2*(1-BDC)): 5
  1-BDC: 0.44
  Total number of conformations: 1
  2*(1-BDC) (%): 88%
  Refined ligand occupancy (%): 93%
[3]; crystal soak 10 mM
  PanDDA run, overall: Modeling comment: High occupancy, use manual refinement
  PanDDA run, DMSO background map: 1-BDC: 0.42 and 0.44
  PanDDA run, DMSO background map: Hit: TRUE
[3]; [8]
  PanDDA run, overall: Hit: TRUE
[3]; ligand-bound crystal structure obtained (TRUE)
  X-ray crystal structure: TRUE
[3]; site occupied in X-ray crystal structure
  Binding site: Adenosine
Kinetic solubility
  Kinetic solubility (uM), mean: 518 µM
  Mean solubility: 518 µM

## CC(c1ccccc1)C(CO)Nc1ncnc2[nH]ccc12 (stereo not drawn) [AVI-3669]
[1]; [6]
  Hill slope: 1.2
[1]; [7]
  Hill slope: 1.2
[2]; result in words
  showed binding to the human macrodomain MacroD2: none
Human macrodomain Targ1; result in words
  showed binding to the human macrodomain Targ1: none
Caco-2 cells; [9]
  Recover Rate (%): 93%
Microsomal stability; [5]
  T1/2 (min), mean: 8.3 min
Microsomal stability
  CLint (mouse): 166.4 µl/min/mg protein
[3]
  Occupancy difference (refined_occupancy - 2*(1-BDC)): 0
  1-BDC: 0.14
  Total number of conformations: 1
  2*(1-BDC) (%): 28%
  Refined ligand occupancy (%): 28%
[3]; TRUE = crystal structure with ligand obtained
  X-ray crystal structure: TRUE
[3]; [8]
  PanDDA run, overall: Hit: TRUE
  PanDDA run, overall: Modeled: TRUE
[3]; crystal soak 10 mM
  PanDDA run, DMSO background map: 1-BDC: 0.14
  PanDDA run, DMSO background map: Hit: TRUE
[3]; site of ligand in X-ray crystal structure
  Binding site: Adenosine
Kinetic solubility
  Kinetic solubility (uM), mean: 529 µM
  Mean solubility: 529 µM

## C[C@H]1CCCN(c2ncnc3[nH]ccc23)[C@H]1CO [AVI-3716]
[2]; result in words
  showed binding to the human macrodomain MacroD2: none
Human macrodomain Targ1; result in words
  showed binding to the human macrodomain Targ1: none
Caco-2 cells; [4]
  Recover Rate (%): 104%
Microsomal stability
  Mouse microsome T1/2: 31.2 min
  CLint (mouse): 44.4 µl/min/mg protein
Kinetic solubility
  Kinetic solubility (uM), mean: 523 µM
  Mean solubility: 523 µM

## Cc1c[nH]c2ncnc(NCC3(O)CCCCC3)c12 [AVI-3761, 1-(((5-methyl-7H-pyrrolo[2,3-d]pyrimidin-4-yl)amino)methyl)cyclohexan-1-ol]
[2]
  showed binding to the human macrodomain MacroD2: none
Human macrodomain Targ1
  showed binding to the human macrodomain Targ1: none
Caco-2 cells; [9]
  Recover Rate (%): 86%
Microsomal stability; [5]
  T1/2 (min), mean: 7.49 min
Microsomal stability
  CLint (mouse): 185 µl/min/mg protein

## CCNC(=O)Nc1cccc2c1[nH]c1ncnc(NN3C(=O)CCC3(C)C)c12 [AVI-4206]
Mac1
  potency (in words): double-digit nanomolar
